We go through 8 molecules from PubChem BioAssay (NCI).

Holding throughout (experiment): DTP human tumour cell line panel, 48 h
Test [1] has as its system CAKI-1 renal.
Test [2] concerns EKVX NSCLC.
In test [3] the test system is LOX IMVI melanoma.
The subject of test [4] is M14 melanoma.
Test [5] concerns MDA-MB-435.
Test [6] concerns MOLT-4 leukemia.
Test [7] relates to OVCAR-3 ovarian.
For test [8], the system named is SF-295 CNS.
Test [9] concerns SK-MEL-5 melanoma.
Test [10] relates to UACC-62 melanoma.

“And” between values parts separate entries of the source, which are not always exact repeats. Identical values can stand only once.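 Tested at 5 concentrations; 48 h exposure; 96-well plates; endpoints linearly interpolated, else capped at highest concentration. GI50 is the concentration that inhibits growth by half. At the TGI there is no net growth.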 Bounds are passed on as bounds.

The term TGI denotes the concentration at which net growth stops. For `C/C1=C/C(=O)O[C@@H]2C[C@@H](CC[C@H](C)/C=C\C=C\CC1)O[C@@](O)([C@@H]1CSC(=O)N1)C2`, the TGI in test [1] was 0.619 µM; in test [2], more than 5.52 µM; in test [3], more than 3.88 µM; in test [4] it was 3.75 µM; in test [5] it was more than 2.24 µM; in [6] it was more than 10 µM. Besides, the TGI in test [7] is 4.25 µM; in test [8], more than 8.93 µM; in test [9], more than 2.76 µM; in [10], more than 10 µM.

For `CC(C)O/N=C/c1cc(NC(=S)OC(C)C)ccc1Cl`, the TGI was more than 84.7 µM in [1]; more than 75.2 µM in [2]; more than 52.5 µM in [3]; more than 95.6 µM in test [4]; more than 100 µM in test [5]; 48.8 µM in test [6]. Besides, the TGI in test [7] was more than 52.6 µM; in test [8] it was 62.7 µM; in test [9], more than 73.4 µM; in [10], more than 69.3 µM.

The GI50 is the concentration giving 50% growth inhibition. `COCc1cc(C(=O)Nc2cc([C@H]3CC[C@@H](OC(=O)NC(C)C)C3)[nH]n2)n(C)n1`: the GI50 in test [1] is 3.64 µM; in [2], 19.1 µM; in [3] it was 4.15 µM; in [4], 12.2 µM; in [5] it was 16.1 µM; in test [6], 5.34 µM. For the same molecule, the GI50 in test [7] was 2550 nM; in test [8], 13 µM; in test [9], 15.6 µM; in test [10], 11.5 µM. Moreover, the TGI was 95.3 µM in test [1]; 85.8 µM in test [2]; 75.5 µM in test [3]; 40.5 µM in test [4]; more than 100 µM in test [5]; 68.1 µM in test [6]. The TGI in test [7] is 30.6 µM; in test [8], more than 100 µM; in test [9] it was 39.3 µM; in [10], 36.4 µM.

Consider `Oc1ccc(-c2nc3ccccc3s2)cc1CN(Cc1ccccn1)Cc1ccccn1`, for which the GI50 was 0.313 µM in test [1]; 1.2 µM in [2]; 1.21 µM in [3]; 0.548 µM in [4]; 2.24 µM in [5]; 1.42 µM in test [6]. Further, the GI50 in test [7] is 2730 nM; in [8] it was 0.468 µM; in [9], 0.556 µM; in [10], 1.24 µM. In addition, the TGI in [1] amounted to 3.36 µM; in test [2] it was 14.9 µM; in test [3] it was 10.7 µM; in [4], 4.6 µM; in test [5], 11.3 µM; in [6] it was 13.9 µM. The TGI in test [7] turned out to be 18.1 µM; in test [8], 6.87 µM; in test [9], 2.27 µM; in [10] it was 6.66 µM.

With `Cc1nnc(-c2cccc(-c3ccc(C(=O)NCC4CC4)cc3)c2)o1`, the GI50 in [1], in test [2], in [3], in [4], in test [5] and in [6] was more than 25 µM in each case. Further, the GI50 in test [7] was more than 25000 nM; in test [8], more than 25 µM; in [9], more than 25 µM; in [10], more than 25 µM. Further, the TGI in test [1], in [2], in test [3], in test [4], in [5] and in test [6] was more than 25 µM each time. For the same molecule, the TGI in test [7], in test [8], in test [9] and in test [10] was more than 25 µM throughout.

As for `O=C(O)C1(C(=O)O)CCC1.[NH2-].[NH2-].[Pt+2]`, the GI50 is > 90.8 µM and 66.7 µM in [1]; 194 µM and > 250 µM in test [2]; 70.2 µM and 70.7 µM in test [3]; 109 µM and 184 µM in test [4]; 180 µM and > 250 µM in test [5]; 86.4 µM and 28 µM in test [6]. Moreover, the GI50 in test [7] is 58400 nM and 112000 nM; in [8], 63.1 µM and 111 µM; in test [9], 109 µM and > 194 µM; in test [10], 35.1 µM and > 114 µM. In addition, the TGI is 231 µM and > 250 µM in test [1]; more than 250 µM in test [2]; 211 µM and 175 µM in test [3]; 248 µM and > 250 µM in [4]; more than 250 µM in test [5]; more than 237 µM in [6]. Also, the TGI in test [7] was 139 µM and 195 µM; in [8], 236 µM and > 250 µM; in [9] it was 218 µM and > 250 µM; in test [10], 140 µM and > 250 µM.

For the molecule `O=C(NCCCO)c1cc(Cl)ccc1O`, the GI50 in test [1] was 6.11 µM; in test [2] it was 2 µM; in test [3], 2.5 µM; in test [4], 3.85 µM; in test [5] it was 2.68 µM; in test [6], 3.22 µM. The GI50 in test [7] was 1600 nM; in test [8] it was 1.36 µM; in [9], 1.94 µM; in test [10], 3.09 µM. In addition, the TGI is 24.6 µM in [1]; 18.1 µM in [2]; 11.5 µM in [3]; 15.7 µM in test [4]; 12.1 µM in test [5]; 15.1 µM in [6]. Besides, the TGI in [7] worked out at 9.11 µM; in test [8], 6.01 µM; in test [9] it was 4.33 µM; in test [10], 15.8 µM.

`CCN(CC)c1ccc(C(O)C2=CC(=O)c3ccccc3C2=O)cc1` (stereo not given): the GI50 in test [1] is 2.31 µM; in test [2], 4.01 µM; in test [3], 1.14 µM; in [4], 2.1 µM; in test [5], 1.58 µM; in [6], 0.44 µM. Moreover, the GI50 in test [7] was 1210 nM; in test [8], 2.23 µM; in test [9] it was 0.914 µM; in [10], 1.65 µM. Further, the TGI in test [1] is 7.4 µM; in test [2], 15.7 µM; in test [3], 3.66 µM; in [4], 4.57 µM; in test [5], 2.99 µM; in test [6], more than 100 µM. For the same molecule, the TGI in [7] worked out at 2.75 µM; in test [8] it was 7.45 µM; in test [9], 2.88 µM; in test [10], 3.34 µM.
